Assay: GC-odor threshold concentration (gas chromatograph with sniff port, panel of trained evaluators)
Settings: for Odor threshold concentration (relative): GC sniff port, panel of trained evaluators, identical conditions, relative values (Ic = 1)
Experimental: Definition: The odour threshold concentration is defined as the lowest concentration of the vapour of an odourant material in the air which can be detected by smell and can be measured by standard methods known in the art. According to standard procedures known to the person skilled in the art, threshold concentrations for volatile perfumery compounds are determined on a gas chromatograph equipped with a sniff port by a panel of trained evaluators. The lowest concentration smelled by each panelist is recorded as the individual threshold concentration expressed in ng (absolute amount of compound delivered at the sniff port).

SMILES | Odor threshold concentration (relative) | odor threshold concentration, times lower than compound Ib (compared with [(1S*,2R*)-1-methyl-2-[(S*)-5-methylhex-4-en-2-yl]cyclopropyl]methanol (Ib)) [times] | odor threshold concentration, times lower than citronellol (compared with citronellol) | odor threshold concentration, times lower than geraniol (compared with geraniol)
CC(C)=CC[C@H](C)[C@H]1C[C@]1(C)CO (relative stereo) [Compound Ib, [(1S*,2R*)-1-Methyl-2-[(S*)-5-methylhex-4-en-2-yl]cyclopropyl]methanol] | 100 |  |  | 
CC(C)=CC[C@@H](C)[C@H]1C[C@]1(C)CO (relative stereo) [Compound Ic, [(1S*,2R*)-1-Methyl-2-[(R*)-5-methylhex-4-en-2-yl]cyclopropyl]methanol] | 1 | 100 |  | 
CC(C)=CCCC(C)CCO (stereo not shown) [Citronellol, 3,7-dimethyloct-6-enol, reference compound] | 185 |  |  | 
CC(C)=CCC(C)/C=C(\C)CO (stereo not shown) [Compound Ia, 2,4,7-Trimethylocta-2,6-dien-1-ol] | 70 |  | more than 2 times | more than 11 times
